Consider 19 molecules from US9434725B2, “5-azaindazole compounds and methods of use” (priority 2012, dated 2016).

One experiment deals with PIM1 (Homo sapiens (Human), UniProt P11309). Briefly: biochemical. It counts as biochemical. To be noted: 10 μM ATP, 90 min, room temperature; read-out: PIM1 LC3K (KI). An outline of the steps:
(§1)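 Pim-specific fluorescent peptide phosphorylated in 10 mM HEPES pH 7.2, 10 mM MgCl2, 0.01% Tween 20, 2 mM DTT for 90 min at room temperature, then stopped with EDTA. Product and substrate separated by microfluidic mobility shift; Ki derived from substrate conversion.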

The target in the next experiment is PIM2 (Homo sapiens (Human), UniProt Q9P1W9). Briefly: Pim kinase binding activity, Caliper LC3000 microfluidic peptide phosphorylation assay, PIM2. It counts as biochemical. To be noted: 10 μM ATP, 90 min, room temperature; read-out: PIM2 LC3K (KI). The procedure, abridged: as §1
Chain of PIM2 (Q9P1W9 whole entry): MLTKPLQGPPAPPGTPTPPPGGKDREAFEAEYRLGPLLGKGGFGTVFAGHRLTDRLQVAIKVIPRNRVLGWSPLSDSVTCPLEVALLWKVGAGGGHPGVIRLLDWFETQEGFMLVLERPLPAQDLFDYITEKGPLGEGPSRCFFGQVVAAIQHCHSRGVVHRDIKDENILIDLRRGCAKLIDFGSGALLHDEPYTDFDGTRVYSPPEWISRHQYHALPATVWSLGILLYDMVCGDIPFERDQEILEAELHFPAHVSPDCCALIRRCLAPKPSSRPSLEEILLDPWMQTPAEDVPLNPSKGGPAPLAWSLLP
Another experiment concerns the target PIM3 (Homo sapiens (Human), UniProt Q86V86). Kind of experiment: Pim kinase binding activity, Caliper LC3000 microfluidic peptide phosphorylation assay, PIM3. It counts as biochemical. As to conditions: 10 μM ATP, 90 min, room temperature; read-out: PIM3 LC3K (KI). An outline of the steps:
as §1

A further experiment concerns BaF3 PIM1 cells. Briefly: In vitro cell proliferation potency assay (Cell Titer Glo), BaF3 PIM1 cells. It counts as cell-based, murine. As to conditions: read-out: Prolif BaF3_PIM 1 (IC50). On the procedure: BaF3 parental line was obtained from the DSMZ repository. BaF3 lines transfected with PIM1 or PIM2 were generated. Mouse IL-3 was purchased from R&D Systems. G418 was purchased from Clontech. Media for BaF3 parental line contained RPMI, 10% FBS, 2 mM L-Glutamine, 2 ng/mL mIL-3. Media for BaF3 PIM1 & 2 lines contained RPMI, 10% FBS, 2 mM L-Glutamine, […]. Media for MM1.S (multiple myeloma cells) line contained RPMI, 10% FBS, 2 mM L-Glutamine.
BaF3, a murine interleukin-3 dependent pro-B cell line, parental cells, BaF3 PIM1 cells, BaF3 PIM2 cells, and MM1.S (multiple myeloma) cells were seeded at 2 k/well, 5 k/well, 5 k/well, and 10 k/well respectively, in a 384-well plate, at 45 μL/well. Test compound was added at 5 μL/well. BaF3 cells (parental and transfected) were incubated overnight, while MM1.S cells were incubated for 72 hours at 37° C., 5% CO2. CELL TITER GLO® Reagent (Promega) was added at 50 μL/well, the plates were incubated for 30 minutes, and their luminescence read on an HT Analyst. IC50/EC50 values for the test compound were calculated.
On the technique in general: ATP-based viability assays read luminescence as a measure of living cells.

The mark [1] stands for this setting: Mus musculus, BaF3, BaF3 cells transfected with PIM1, incubated overnight.

Like-named read-outs stand apart in the source and are kept apart here.

Chain of PIM1 (P11309 whole entry): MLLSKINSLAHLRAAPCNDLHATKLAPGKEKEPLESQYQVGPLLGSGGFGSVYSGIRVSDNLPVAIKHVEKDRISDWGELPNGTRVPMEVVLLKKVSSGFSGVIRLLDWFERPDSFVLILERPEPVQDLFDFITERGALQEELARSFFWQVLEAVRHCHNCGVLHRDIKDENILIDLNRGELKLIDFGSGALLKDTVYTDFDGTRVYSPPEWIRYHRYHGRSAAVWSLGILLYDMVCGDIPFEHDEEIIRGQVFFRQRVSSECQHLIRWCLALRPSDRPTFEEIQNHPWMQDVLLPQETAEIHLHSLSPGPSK

By Ki is commonly meant a dissociation constant, usually derived from enzyme kinetics or from competition with a known ligand. What is called IC50 is the point on the concentration scale where inhibition reaches its midpoint. `Cc1cncc(-c2cc3c(cn2)cnn3-c2cccc(N3CCNC(C)C3)n2)n1` (single isomer, unassigned) [Compound 193, 1-[6-(3-methylpiperazin-1-yl)-2-pyridyl]-6-(6-methylpyrazin-2-yl)pyrazolo[4,3-c]pyridine]: the Ki came to 0.046 nM at PIM1, 0.596 nM at PIM2 and 0.035 nM at PIM3. In addition, in the experiment with BaF3 PIM1 cells (BaF3 cells transfected with PIM1, incubated overnight), the IC50 was 1200 nM.

With `CCc1cncc(-c2cc3c(cn2)cnn3-c2cccc(N3CCNCC3)n2)c1` [Compound 104, 6-(5-ethylpyridin-3-yl)-1-(6-(piperazin-1-yl)pyridin-2-yl)-1H-pyrazolo[4,3-c]pyridine], the Ki was found to be 0.119 nM at PIM1 and 0.077 nM at PIM3. Besides, in the experiment with BaF3 PIM1 cells (setting [1]), the IC50 was 1500 nM.

Regarding `c1cc(N2CCNCC2)nc(-n2ncc3cnc(-c4cncs4)cc32)c1` [Compound 109, 5-[1-(6-piperazin-1-yl-2-pyridyl)pyrazolo[4,3-c]pyridin-6-yl]thiazole], the results for the Ki on PIM1, at PIM2 and at PIM3 were 0.476 nM, 4.03 nM and 0.285 nM, respectively. Moreover, the IC50 in the experiment on BaF3 PIM1 cells (setting [1]) was 1500 nM.

Regarding `N[C@@H]1CCCN(c2cccc(-n3ncc4cnc(-c5cncs5)cc43)n2)C1` [Compound 110, (3R)-1-[6-(6-thiazol-5-ylpyrazolo[4,3-c]pyridin-1-yl)-2-pyridyl]piperidin-3-amine], the Ki at PIM1 was 0.504 nM; at PIM2 it was 4.5 nM; on PIM3 it was 0.37 nM. Moreover, in the experiment on BaF3 PIM1 cells (setting [1]), the IC50 amounted to 1700 nM.

Regarding `c1cc(N2CCCNCC2)nc(-n2ncc3cnc(-c4cncc(C5CC5)c4)cc32)c1` [Compound 112], the Ki at PIM1 amounted to 0.038 nM; on PIM2 it was 3.87 nM; at PIM3 it was 0.093 nM. In addition, in the experiment with BaF3 PIM1 cells (setting [1]), the IC50 came out at 490 nM.

For the molecule `CCc1cncc(-c2cc3c(cn2)cnn3-c2ccc(Cl)c(N3CCC[C@H](N)C3)n2)c1` [Compound 117, (S)-1-(3-chloro-6-(6-(5-ethylpyridin-3-yl)-1H-pyrazolo[4,3-c]pyridin-1-yl)pyridin-2-yl)piperidin-3-amine], the Ki at PIM1 worked out at 0.141 nM; on PIM2 it was 1.03 nM; on PIM3, 0.098 nM. In addition, the IC50 in the experiment on BaF3 PIM1 cells (setting [1]) was 2900 nM.

Turning to `Cc1cc(-c2cc3c(cn2)cnn3-c2cccc(N3CCC[C@H](N)C3)n2)sn1` [Compound 124, (3S)-1-[6-[6-(3-methylisothiazol-5-yl)pyrazolo[4,3-c]pyridin-1-yl]-2-pyridyl]piperidin-3-amine], the Ki at PIM1 was found to be 0.71 nM; at PIM2, 3.48 nM; at PIM3, 0.14 nM. Further, the IC50 in the experiment with BaF3 PIM1 cells (setting [1]) was 804 nM.

As for `COc1cncc(-c2cc3c(cn2)cnn3-c2cccc(N3CCNCC3)n2)n1` [Compound 130, 6-(6-methoxypyrazin-2-yl)-1-(6-piperazin-1-yl-2-pyridyl)pyrazolo[4,3-c]pyridine], the Ki turned out to be 0.113 nM on PIM1, 1.87 nM at PIM2 and 0.068 nM on PIM3. Moreover, the IC50 with BaF3 PIM1 cells (setting [1]) was found to be 1500 nM.

For the molecule `CCn1cc(-c2cc3c(cn2)cnn3-c2cccc(N3CCC[C@H](N)C3)n2)cn1` [Compound 133, (3S)-1-[6-[6-(1-ethylpyrazol-4-yl)pyrazolo[4,3-c]pyridin-1-yl]-2-pyridyl]piperidin-3-amine], the Ki came out at 0.867 nM on PIM1, 4.56 nM on PIM2 and 0.155 nM at PIM3. Also, the IC50 with BaF3 PIM1 cells (setting [1]) was determined as 3000 nM.

Turning to `Cc1cncc(-c2cc3c(cn2)cnn3-c2cccc(N3CCC[C@H](N)C3)n2)n1` [Compound 137, (3S)-1-[6-[6-(6-methylpyrazin-2-yl)pyrazolo[4,3-c]pyridin-1-yl]-2-pyridyl]piperidin-3-amine], the Ki was 0.159 nM on PIM1, 0.499 nM at PIM2 and 0.038 nM on PIM3. Further, the concentration for half-maximal inhibition (IC50) with BaF3 PIM1 cells (setting [1]) amounted to 2100 nM.

Take `CC(C)(C)n1cc(-c2cc3c(cn2)cnn3-c2cccc(N3CCCNCC3)n2)cn1` [Compound 145, 1-(6-(1,4-Diazepan-1-yl)pyridin-2-yl)-6-(1-tert-butyl-1H-pyrazol-4-yl)-1H-pyrazolo[4,3-c]pyridine]: the Ki at PIM1 amounted to 0.362 nM; on PIM2, 10.5 nM; at PIM3, 0.636 nM. Further, the IC50 in the experiment on BaF3 PIM1 cells (setting [1]) amounted to 2500 nM.

In the case of `OCCn1cc(-c2cc3c(cn2)cnn3-c2cccc(N3CCCNCC3)n2)cn1` [Compound 152, 2-(4-(1-(6-(1,4-Diazepan-1-yl)pyridin-2-yl)-1H-pyrazolo[4,3-c]pyridin-6-yl)-1H-pyrazol-1-yl)ethanol], the Ki at PIM1 is 0.215 nM; at PIM2, 5.38 nM; on PIM3 it was 0.134 nM. Moreover, in the experiment with BaF3 PIM1 cells (setting [1]), the IC50 amounted to 1500 nM.

Take `c1cc(N2CCNCC2)nc(-n2ncc3cnc(-c4cncc(C5CC5)n4)cc32)c1` [Compound 165, 6-(6-cyclopropylpyrazin-2-yl)-1-(6-piperazin-1-yl-2-pyridyl)pyrazolo[4,3-c]pyridine]: the values for the Ki on PIM1, at PIM2 and at PIM3 were 0.063 nM, 1.14 nM and 0.174 nM, respectively. Further, the IC50 with BaF3 PIM1 cells (setting [1]) came out at 139 nM.

As for `Cc1cncc(-c2cc3c(cn2)cnn3-c2cccc(N3CCNC(C)C3)n2)n1` (stereo not drawn) [Compound 169, 1-[6-(3-methylpiperazin-1-yl)-2-pyridyl]-6-(6-methylpyrazin-2-yl)pyrazolo[4,3-c]pyridine], the Ki on PIM1 came to 0.228 nM; on PIM2 it was 1.79 nM; on PIM3, 0.164 nM. Further, the IC50 in the experiment on BaF3 PIM1 cells (setting [1]) came to 457 nM.

With `CCc1cncc(-c2cc3c(cn2)cnn3-c2cccc(N3CCNCC(O)C3)n2)n1` (stereo not drawn) [Compound 172, 1-[6-[6-(6-ethylpyrazin-2-yl)pyrazolo[4,3-c]pyridin-1-yl]-2-pyridyl]-1 4-diazepan-6-ol], the values for the inhibition constant (Ki) on PIM1, on PIM2 and on PIM3 were 0.034 nM, 1.47 nM and 0.048 nM, respectively. Also, the IC50 with BaF3 PIM1 cells (setting [1]) amounted to 111 nM.

On to `FC(F)(F)Cn1cc(-c2cc3c(cn2)cnn3-c2cncc(N3CCCNCC3)n2)cn1` [Compound 178, 1-(6-(1,4-Diazepan-1-yl)pyrazin-2-yl)-6-(1-(2,2,2-trifluoroethyl)-1H-pyrazol-4-yl)-1H-pyrazolo[4,3-c]pyridine], for which the Ki on PIM1 turned out to be 0.386 nM; at PIM2, 6.68 nM; at PIM3 it was 1.35 nM. Also, the IC50 in the experiment with BaF3 PIM1 cells (setting [1]) came out at 549 nM.

With `Cc1cncc(-c2cc3c(cn2)cnn3-c2ccc(C3CC3)c(N3CCC[C@H](N)C3)n2)n1` [Compound 181, (S)-1-(3-cyclopropyl-6-(6-(6-methylpyrazin-2-yl)-1H-pyrazolo[4,3-c]pyridin-1-yl)pyridin-2-yl)piperidin-3-amine], the inhibitory constant (Ki) on PIM1 turned out to be 0.014 nM; at PIM2, 0.077 nM; on PIM3 it was 0.019 nM. Besides, in the experiment with BaF3 PIM1 cells (setting [1]), the IC50 came to 214 nM.

Regarding `O[C@@H]1CNCCN(c2cccc(-n3ncc4cnc(-c5cnn(CC(F)(F)F)c5)cc43)n2)C1` [Compound 188, (R)-1-(6-(6-(1-(2,2,2-Trifluoroethyl)-1H-pyrazol-4-yl)-1H-pyrazolo[4,3-c]pyridin-1-yl)-pyridin-2-yl)-1,4-diazepan-6-ol], the results for the inhibition constant (Ki) at PIM1, at PIM2 and on PIM3 were 0.173 nM, 4.64 nM and 0.611 nM, respectively. For the same molecule, the IC50 in the experiment on BaF3 PIM1 cells (setting [1]) worked out at 418 nM.

As for `O[C@H]1CNCCN(c2cccc(-n3ncc4cnc(-c5cnn(CC(F)(F)F)c5)cc43)n2)C1` [Compound 189, (S)-1-(6-(6-(1-(2,2,2-Trifluoroethyl)-1H-pyrazol-4-yl)-1H-pyrazolo[4,3-c]pyridin-1-yl)-pyridin-2-yl)-1,4-diazepan-6-ol], the Ki is 0.038 nM on PIM1, 0.373 nM on PIM2 and 0.089 nM at PIM3. The concentration for half-maximal inhibition (IC50) with BaF3 PIM1 cells (setting [1]) turned out to be 181 nM.
